In assay [1] the test system is eIF5A hypusination in MCF7 cells. Briefly: eIF5A hypusination in intact MCF7 cells, Western blot. In kind it is cell-based, human. Particulars: 24 h. On the procedure: (§1) We tested the ability of the GC7 analogs to inhibit hypusination in intact cells. MCF-7 cells (Fig 5B), a classical model of breast cancer cell line, and HT29 cells (Fig 5C), a cell model of colorectal cancer, were treated with 40 μM of GC7, 1, 2, 3, and 4 for 24h. Cells were lysed and analyzed by Western blot. As observed, none of the molecules modified eIF5A expression. […] GC7 analogs inhibited hypusination from 35 to 55%.
The human breast cancer cell line MCF7 (HTB-22 ATCC) and colorectal adenocarcinoma HT29 (HTB-38 ATCC) were cultured in DMEM (Gibco) supplemented with 10% FBS (Dutscher), 10 U/mL penicillin, and […] streptomycin. 1 mM of aminoguanidine was added to the medium to inhibit the degradation of GC7 and polyamines by amine oxidase from the serum and the production of reactive oxygen species. Cells were maintained at 37°C, 5% CO2 in a humid atmosphere.
(§2) After treatment, cells were washed with ice-cold PBS and lysed in RIPA Buffer (50 mM Tris pH 7.5, 150 mM NaCl, 0.1% SDS, 0.5% Na Deoxycholate, 5 mM NaF, 2.5 mM Na4P2O7, 1% NP4O) containing a protease inhibitor cocktail (complete Roche). 10 μg of proteins were separated by SDS PAGE and transferred to a PVDF membrane (Immobilon-P Millipore). The membranes were probed with the appropriate primary antibody that was detected by horseradish peroxidase-conjugated secondary antibody (Jackson Immunoresearch) and visualized by chemiluminescence (ECL Amersham RPN 3244) using a Fuji LAS-4000 imager. ImageJ® software was used to quantify band intensity and the ratios of proteins of interest were normalized to a loading control. Full-length Western blots are provided in the supplementary data (S19, S20 Figs).
On the technique in general: In western blotting, separated proteins are transferred to a membrane and probed.

Assay [2] addresses T1, DOHH (Homo sapiens, UniProt Q9BU89).
T1 construct: pelB leader (N); host or cells: E. coli BL21 (DE3)
T1 sequence (Q9BU89 1-302): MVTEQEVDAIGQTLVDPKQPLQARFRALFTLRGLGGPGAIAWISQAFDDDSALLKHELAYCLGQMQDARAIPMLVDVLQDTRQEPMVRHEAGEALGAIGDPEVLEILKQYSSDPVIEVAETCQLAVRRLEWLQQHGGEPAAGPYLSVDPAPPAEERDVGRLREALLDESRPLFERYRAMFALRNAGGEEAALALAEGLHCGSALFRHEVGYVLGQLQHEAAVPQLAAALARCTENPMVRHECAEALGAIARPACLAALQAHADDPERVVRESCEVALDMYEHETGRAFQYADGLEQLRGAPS
Briefly: Hyp'Assay, substance added after the deoxyhypusination reaction (DOHH step). In kind it is biochemical. Particulars: 5 μM spermidine. As to the method: We then tested the ability of DOHH inhibitors to inhibit eIF5A hypusination using the Hyp’Assay. During the Hyp’Assay, DOHH inhibitors were added after the deoxyhypusination reaction.
To address this issue, we compared the ability of GC7 to inhibit DHPS or DOHH by adding GC7 during the first step of the Hyp’Assay; when DHPS mediates the deoxyhypusination reaction (Fig 2A), or only during the second step, when DOHH hydroxylate deoxyhypusinated eIF5A. […] When finding new hypusination inhibitors adding them during the first or the second step of the Hyp’Assay will allow us to determine if the inhibition affects DHPS or DOHH. Another way to discriminate between DHPS or DOHH inhibitors would be to use Hpu98, an antibody that recognized both hypusinated and deoxyhypusinated eIF5A, instead of Hpu24, which is specific for hypusinated eIF5A [18]. […] We performed a new Hyp’Assay by omitting DOHH in the reaction mix and using the Hpu98 antibody. First, we performed a dose response experiment with spermidine at pH: 8.0 and 9.0 (Fig 3E). […] We also tested the ability of GC7 (Fig 3F) and CPX or EDTA (Fig 3G) to inhibit DHPS.
[…] Then 10 μL containing 1 μg of DOHH with 10 μM Fe^2+ (H8FeN2O8S2^. 6H2O) were added. After 1 h proteins were analyzed by Western Blot using antibodies toward DHPS, DOHH, Hypusine, and eIF5A.
The cell-free reaction described in 4.4 is performed in triplicates in a 96-wells plate (MaxiSorp, ThermoFisher) in the presence of 3 μg of eIF5A, 2 μg of DHPS, and 2 μg of DOHH by well. The reaction product, hypusinated eIF5A, is adsorbed onto the plate overnight at 4°C. The plate is washed (100 μL/well) thrice with PBS-T (PBS– 0.05% Tween20), then saturated with 1% non-fat dry milk in PBS-T for 2 h at room temperature. The plate is washed thrice with PBS-T and incubated overnight at 4°C with the anti-hypusine antibody (1:2000 in saturation buffer, 50 μL/well). The next day and after 5 washes with PBS-T, HRP-coupled anti-rabbit secondary antibody diluted 1:5000 in saturation buffer (50 μL/well) is added for 2 h at room temperature.

The test system of assay [3] is DHPS. Particulars: read-out: IC50 previously reported, cited from earlier work.
The test system of assay [4] is eIF5A hypusination in HT29 cells. Briefly: eIF5A hypusination in intact HT29 cells, Western blot. In kind it is cell-based. Particulars: Homo sapiens, HT-29, 24 h. As to the method: as §1
The human breast cancer cell line MCF7 (HTB-22 ATCC) and colorectal adenocarcinoma HT29 (HTB-38 ATCC) were cultured in DMEM (Gibco) supplemented with 10% FBS (Dutscher), 10 U/mL penicillin, and 10 mg/mL streptomycin. […]
as §2, with “10 μg of proteins were separated by SDS PAGE and transferred to a PVDF membrane (Immobilon-P Millipore).” left out, “Full-length Western blots are provided in the supplementary data (S19, S20 Figs).” left out

Where two headings read alike, the source gives them in different places.

Usually inhibition stands for the percentage by which the read-out fell short of the control. Low readings indicate a weak effect, high ones a strong effect. By IC50 is commonly meant the concentration at which inhibition is half-maximal.

With `N=C(N)NCCCCCCCN` [GC7, N1-guanyl-1,7-diaminoheptane], the “hypusinated eIF5A, Western blot quantification, Mean (Figure 5B)” value in assay [1] (40 μM, Ctrl 100, 4 experiments) stood at 20.45. The inhibition at 40 µM in assay [1] (Homo sapiens) and in assay [4] was 80% each time. Moreover, the “Relative hypusination of eIF5A, Mean (quantification from Figure 3D)” value in assay [2] (GC7 added during the DOHH step, CTRL 100,0) is listed as 99,58 a.u. The effect on hypusination result in assay [2] (added only during the hydroxylation step (DOHH)) is “no inhibition was observed”. In addition, the half-maximal inhibitory concentration (IC50) was 17 nM in assay [3] (ref 25) and 50 nM in assay [3] (ref 26).

Source of the values: paper PMC11819603, “Development of a reliable, sensitive, and convenient assay for the discovery of new eIF5A hypusination inhibitors” (PLOS ONE, 2025).
